Consider eleven compounds from US20090304692A1, “TRIAZINE COMPOUNDS AS PI3 KINASE AND MTOR INHIBITORS” (Wyeth, priority 2008, published 2009).

For data set [1], the target named is Human mTOR (FLAG-TOR) (Homo sapiens, UniProt P42345). The data set is described as follows: mTOR kinase assay (DELFIA format, purified enzyme). The conditions noted are these: read-out: IC50 mTOR. The data set is classed as biochemical.
Data set [2] has as its system human breast MDA-MB-361 tumor cell line. The data set is described as follows: In vitro cell culture growth assay (MTS), MDA-MB-361. The data set is classed as cell-based. The settings on record: Homo sapiens, MDA-MB-361, 72 h; MTS cell growth assay, three days after drug treatment; read-out: IC50 MDA-MB-361.
The subject of data set [3] is human prostate PC3-mm2 tumor cell line. The data set is described as follows: In vitro cell culture growth assay (MTS), PC3-mm2. In kind it is cell-based. The conditions noted are these: Homo sapiens, PC3MM2, 72 h, MTS cell growth assay, three days after drug treatment; read-out: IC50 PC3-mm2. Background: Tetrazolium assays rely on reduction of a dye to a coloured formazan, in cell work by metabolically active cells.

For data set [4], the target named is PI3K-α (Homo sapiens, UniProt P42336). The experiment in a line: PI3K-alpha fluorescence polarization assay. The settings on record: read-out: IC50 PI3Kα. A general note: Polarisation of emitted light reports the rotation of a fluorescent probe.
PI3K-α, sequence (P42336 whole entry, species assumed): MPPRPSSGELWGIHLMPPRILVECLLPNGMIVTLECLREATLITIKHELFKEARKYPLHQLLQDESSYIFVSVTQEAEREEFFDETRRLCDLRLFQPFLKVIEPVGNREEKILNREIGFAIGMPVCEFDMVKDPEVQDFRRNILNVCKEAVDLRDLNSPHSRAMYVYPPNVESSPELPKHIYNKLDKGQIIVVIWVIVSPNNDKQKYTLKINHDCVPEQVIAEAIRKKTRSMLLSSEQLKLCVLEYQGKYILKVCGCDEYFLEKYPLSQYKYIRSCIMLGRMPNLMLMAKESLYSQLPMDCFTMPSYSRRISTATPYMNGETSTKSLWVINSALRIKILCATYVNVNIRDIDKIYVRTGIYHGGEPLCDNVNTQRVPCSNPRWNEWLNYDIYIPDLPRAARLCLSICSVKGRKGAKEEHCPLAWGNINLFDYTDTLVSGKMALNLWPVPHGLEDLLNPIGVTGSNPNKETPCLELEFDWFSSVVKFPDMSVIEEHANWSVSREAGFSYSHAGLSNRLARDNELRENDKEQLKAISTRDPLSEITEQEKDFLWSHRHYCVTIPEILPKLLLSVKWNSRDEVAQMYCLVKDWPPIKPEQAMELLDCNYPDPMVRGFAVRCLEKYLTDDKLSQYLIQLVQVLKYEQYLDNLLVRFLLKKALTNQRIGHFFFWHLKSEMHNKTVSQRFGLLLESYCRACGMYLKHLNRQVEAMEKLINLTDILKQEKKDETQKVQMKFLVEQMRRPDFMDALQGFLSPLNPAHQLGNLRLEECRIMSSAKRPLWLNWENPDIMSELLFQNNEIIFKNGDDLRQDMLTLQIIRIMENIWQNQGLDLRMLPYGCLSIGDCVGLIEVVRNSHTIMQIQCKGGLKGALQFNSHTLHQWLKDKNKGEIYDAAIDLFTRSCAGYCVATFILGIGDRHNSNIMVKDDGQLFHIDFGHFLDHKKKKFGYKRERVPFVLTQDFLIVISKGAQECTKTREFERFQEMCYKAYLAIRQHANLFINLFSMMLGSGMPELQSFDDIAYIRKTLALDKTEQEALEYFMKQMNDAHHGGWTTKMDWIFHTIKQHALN
PI3K-α, sequence (P27986 whole entry partner, species assumed): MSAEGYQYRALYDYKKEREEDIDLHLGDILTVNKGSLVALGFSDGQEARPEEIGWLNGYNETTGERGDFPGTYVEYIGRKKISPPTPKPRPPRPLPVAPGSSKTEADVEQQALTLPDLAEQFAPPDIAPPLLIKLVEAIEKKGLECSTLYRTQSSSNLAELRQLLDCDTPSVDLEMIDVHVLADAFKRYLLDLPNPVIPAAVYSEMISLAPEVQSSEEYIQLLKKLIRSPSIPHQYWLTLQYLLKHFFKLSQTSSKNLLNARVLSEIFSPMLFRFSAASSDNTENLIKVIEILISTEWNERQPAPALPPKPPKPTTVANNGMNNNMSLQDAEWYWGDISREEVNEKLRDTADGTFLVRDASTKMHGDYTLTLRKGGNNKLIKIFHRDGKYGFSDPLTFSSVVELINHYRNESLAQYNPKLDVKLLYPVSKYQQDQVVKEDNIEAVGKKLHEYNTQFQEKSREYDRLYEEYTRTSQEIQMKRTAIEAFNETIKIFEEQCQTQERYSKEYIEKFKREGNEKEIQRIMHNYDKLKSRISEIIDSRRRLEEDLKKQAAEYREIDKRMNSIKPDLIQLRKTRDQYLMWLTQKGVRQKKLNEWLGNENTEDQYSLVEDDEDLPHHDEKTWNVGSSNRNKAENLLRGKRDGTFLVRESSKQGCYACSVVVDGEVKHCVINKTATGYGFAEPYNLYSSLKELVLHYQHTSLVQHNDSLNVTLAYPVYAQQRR
For data set [5], the target named is PI3K-γ (Homo sapiens, UniProt P48736). The experiment in a line: PI3K-gamma fluorescence polarization assay. The conditions noted are these: read-out: IC50 PI3Kγ.
PI3K-γ, sequence (P48736 whole entry, species assumed): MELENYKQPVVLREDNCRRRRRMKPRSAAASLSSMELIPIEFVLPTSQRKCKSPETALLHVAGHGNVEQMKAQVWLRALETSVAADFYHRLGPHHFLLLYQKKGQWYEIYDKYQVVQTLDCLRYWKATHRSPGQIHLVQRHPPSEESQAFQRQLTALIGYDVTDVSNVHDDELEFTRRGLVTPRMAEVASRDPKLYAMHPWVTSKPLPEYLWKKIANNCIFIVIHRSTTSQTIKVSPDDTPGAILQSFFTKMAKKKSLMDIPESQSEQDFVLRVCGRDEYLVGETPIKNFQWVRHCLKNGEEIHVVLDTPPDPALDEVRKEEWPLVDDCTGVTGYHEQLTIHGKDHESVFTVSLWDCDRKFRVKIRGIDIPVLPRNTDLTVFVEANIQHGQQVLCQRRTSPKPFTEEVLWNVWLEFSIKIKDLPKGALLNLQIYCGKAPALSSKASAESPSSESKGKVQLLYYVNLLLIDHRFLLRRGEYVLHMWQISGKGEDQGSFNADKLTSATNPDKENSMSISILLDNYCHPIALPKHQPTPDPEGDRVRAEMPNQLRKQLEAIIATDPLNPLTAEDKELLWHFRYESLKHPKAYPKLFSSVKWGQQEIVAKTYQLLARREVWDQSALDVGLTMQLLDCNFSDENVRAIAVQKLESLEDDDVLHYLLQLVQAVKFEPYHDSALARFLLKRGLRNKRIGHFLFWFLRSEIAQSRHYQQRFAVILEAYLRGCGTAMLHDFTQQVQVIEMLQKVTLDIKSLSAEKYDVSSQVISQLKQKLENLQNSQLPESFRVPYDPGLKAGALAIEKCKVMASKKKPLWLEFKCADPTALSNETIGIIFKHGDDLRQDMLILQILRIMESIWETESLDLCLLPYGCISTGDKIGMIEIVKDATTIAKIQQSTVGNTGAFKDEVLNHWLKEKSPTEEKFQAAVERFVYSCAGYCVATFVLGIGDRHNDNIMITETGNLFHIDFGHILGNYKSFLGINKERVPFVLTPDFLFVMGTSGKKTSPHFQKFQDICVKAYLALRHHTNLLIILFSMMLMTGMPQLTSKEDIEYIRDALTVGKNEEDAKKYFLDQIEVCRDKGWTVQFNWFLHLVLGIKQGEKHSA
Data set [6] concerns human tumor xenograft models. The settings on record: cited from earlier work.
In data set [7] the test system is acute lymphoblastic leukemia xenograft. The conditions noted are these: NOS/SCID xenograft mouse model of acute lymphoblastic leukemia; cited from earlier work.
The target of data set [8] is mTOR enzymes (Homo sapiens, UniProt P42345). The conditions noted are these: read-out: mTOR enzymes IC50; cited from earlier work.

Where two headings read alike, the source gives them in different places.

A word on the IC50: it is the concentration needed to halve the response being measured. One may read the melting point as the temperature, or range, at which the solid turns liquid. For `O=C(Nc1ccncc1)Nc1ccc(-c2nc(N3CCOCC3)nc(N3CC4CCC(C3)O4)n2)cc1` [Example 48, 1-{4-[4-morpholin-4-yl-6-(8-oxa-3-azabicyclo[3.2.1]oct-3-yl)-1,3,5-triazin-2-yl]phenyl}-3-pyridin-4-ylurea], the melting point was found to be 258 °C. In [1], the IC50 worked out at 1.8 nM. Also, the IC50 in data set [2] was determined as 38 nM. Further, the half-maximal inhibitory concentration (IC50) in data set [3] was found to be 48 nM. The IC50 in [4] turned out to be 6 nM. Also, in data set [5], the IC50 was 40 nM.

Compound `O=C(Nc1ccncc1)Nc1ccc(-c2nc(OC3CCOCC3)nc(N3CCOCC3)n2)cc1` [Example 59, 1-{4-[4-morpholin-4-yl-6-(tetrahydro-2H-pyran-4-yloxy)-1,3,5-triazin-2-yl]phenyl}-3-pyridin-4-ylurea] yielded a melting point of 238 °C. Besides, in data set [1], the IC50 came to 1.05 nM. The IC50 in data set [2] was 14 nM. Besides, in [3], the IC50 was determined as 16 nM. For the same compound, the IC50 in data set [4] came out at 3 nM. The IC50 in data set [5] was 30 nM.

Regarding `O=C(Nc1ccncc1)Nc1ccc(-c2nc(N3CCC3)nc(N3CCOCC3)n2)cc1` [Example 140, 1-[4-(4-azetidin-1-yl-6-morpholin-4-yl-1,3,5-triazin-2-yl)phenyl]-3-pyridin-4-ylurea], the melting point worked out at 212 °C. Also, the IC50 in [1] stood at 27 nM. Further, the IC50 in data set [2] was found to be 225 nM. In addition, in data set [3], the IC50 was found to be 279 nM. Besides, in data set [4], the IC50 is 27 nM. Also, in [5], the IC50 was 100 nM.

In turn, `CN1CCN(C(=O)c2ccc(NC(=O)Nc3ccc(-c4nc(N5CCC5)nc(N5CCOCC5)n4)cc3)cc2)CC1` [Example 196, 1-[4-(4-azetidin-1-yl-6-morpholin-4-yl-1,3,5-triazin-2-yl)phenyl]-3-{4-[(4-methylpiperazin-1-yl)carbonyl]phenyl}urea] gave a melting point of 170 °C. Also, in data set [1], the IC50 is 13 nM. Also, in data set [2], the IC50 worked out at 50 nM. For the same compound, the IC50 in data set [3] stood at 82 nM. The IC50 in [4] was 6 nM. Besides, the IC50 in data set [5] amounted to 55 nM.

Compound `CC(=O)c1ccc(NC(=O)Nc2ccc(-c3nc(N4CCOCC4)nc(N4C[C@H]5C[C@@H]4CN5C(=O)OC(C)(C)C)n3)cc2)cc1` [Example 257, tert-butyl (1R,4R)-5-[4-(4-{[(4-acetylphenyl)carbamoyl]amino}phenyl)-6-morpholin-4-yl-1,3,5-triazin-2-yl]-2,5-diazabicyclo[2.2.1]heptane-2-carboxylate] displayed a melting point of 202 °C. For the same compound, the IC50 in data set [1] came to 85 nM. The IC50 in data set [4] turned out to be 90 nM. The IC50 in [5] turned out to be 323 nM.

Take `O=C(Nc1ccc(C(=O)NCc2ccccn2)cc1)Nc1ccc(-c2nc(N3CCOCC3)nc(N3CCOCC3)n2)cc1` [Example 263, 4-({[4-(4,6-dimorpholin-4-yl-1,3,5-triazin-2-yl)phenyl]carbamoyl}amino)-N-(pyridin-2-ylmethyl)benzamide]: the melting point is 296 to 298 °C. The IC50 in data set [1] stood at 1 nM. The half-inhibitory concentration (IC50) in data set [2] is 68 nM. The IC50 in [3] came out at 31 nM. In addition, the IC50 in data set [4] came to 3 nM. For the same compound, the IC50 in data set [5] was determined as 20 nM.

Compound `COC(=O)c1ccc(NC(=O)Nc2ccc(-c3nc(C(C)C)nc(N4CCOCC4)n3)cc2)cc1` [Example 300, methyl 4-[({4-[4-(1-methylethyl)-6-morpholin-4-yl-1,3,5-triazin-2-yl]phenyl}carbamoyl)amino]benzoate] yielded a melting point of 218 °C. In data set [1], the IC50 is 5.3 nM. Also, the IC50 in data set [2] stood at 297 nM. The IC50 in data set [3] turned out to be 340 nM. In data set [4], the IC50 came to 39 nM. Besides, the IC50 in data set [5] is 106 nM.

Regarding `Cn1c(=O)n(-c2ccc(C(C)(C)C#N)cc2)c2c3cc(-c4cnc5ccccc5c4)ccc3ncc21` [NVP-BEZ-235, 2-methyl-2-(4-(3-methyl-2-oxo-8-(quinolin-3-yl)-2,3-dihydro-1H-imidazo[4,5-c]quinolin-1-yl)phenyl)propanenitrile], the “activity against human tumor models” value in data set [6] (prostrate (PC-3) and glioblastoma (U-87) xenografts) is on record as “demonstrated activity”.

For `Oc1cccc(-c2nc(N3CCOCC3)c3oc4ncccc4c3n2)c1` [PI103, 3-(4-(4-morpholinyl)pyrido[3′,2′:4,5]furo[3,2-d]pyrimidin-2-yl)phenol], the “activity against human tumor models” value in data set [6] (I.P. dosing in mice, U87MG, PC3, MDA-MB-468, MDA-MB-435, HCT 116, SKOV3, IGROV-1 xenografts) is recorded as “demonstrated activity”.

Take `CO[C@H]1C[C@@H]2CC[C@@H](C)[C@@](O)(O2)C(=O)C(=O)N2CCCC[C@H]2C(=O)O[C@H]([C@H](C)C[C@@H]2CC[C@@H](OC(=O)C(C)(CO)CO)[C@H](OC)C2)CC(=O)[C@H](C)/C=C(\C)[C@@H](O)[C@@H](OC)C(=O)[C@H](C)C[C@H](C)/C=C/C=C/C=C/1C` [Torisel]: in data set [7], the “activity in xenograft mouse model” value was “active”.

`FC(F)c1nc2ccccc2n1-c1nc(N2CCOCC2)nc(N2CCOCC2)n1` [ZSTK474, 2-(2-difluoromethylbenzoimidazol-1-yl)-4,6-dimorpholino-1,3,5-triazine]: the “growth of human xenograft tumors” value in [6] (chronic oral administration, 400 mg/kg, mouse, A549, PC-3, WiDr) is recorded as “completely inhibited growth”. In addition, the IC50 in [8] was more than 10000 nM.
